# Key:
# [1] = system: 293 ATXN3/Q75-GFP cells; assay: ATXN3/Q75 aggregation assay in 293 cells (high-content analysis); format: cell-based, human; details: 8 hr pretreatment, doxycycline and oxaliplatin 6 days
# Description: The isogenic ATXN3/[…]-75 cell line was employed, which was formed from subjecting the Flp-InTM-293 cells to targeting insertion of the pcDNA5/FRT/TO-ATXN3/[…] and […] recombinant plasmids. These cell lines were grown in medium containing 5 μg/mL blasticidin and 100 μg/mL hygromycin (InvivoGen). In addition, the method for culture in establishment of the human SH-SY5Y derived Flp-In host cell line and the formation of the isogenic ATXN3/[…]-75 cell line was the same. […] Then doxycycline (10 μg/mL, BD) and oxaliplatin (5 μM, Sigma) were added for 6 days.
# [2] = MTT cytotoxicity assay in HEK-293 cells; format: cell-based; details: human, one day treatment
# Description: (§1) Cells (5×10^4/well in 48-well dishes) were cultivated at 37° C. incubator containing 5% CO2 for 20 hr and treated with different concentrations of the Gardenia jasminoides extract (5-30 mg/mL) or pure compound (100 nM-1 mM). After one day, 20 μL MTT (3,[4,5-dimethylthiazol-2-yl]-2,5-diphenyl-tetrazolium bromide, 5 mg/mL in PBS; Sigma-Aldrich) was added to cells and incubated for 2 hr. The absorbance of the purple formazan dye was measured at 570 nm by a Bio-Tek μQuant Universal Microplate Spectrophotometer.
# [3] = system: SH-SY5Y ATXN3/Q75-GFP cells; assay: ATXN3/Q75 aggregation assay in retinoic acid-differentiated SH-SY5Y cells; format: cell-based, human; details: one week
# Description: Flp-InTM-293 cells derived from human 293 (Invitrogen) were cultured as described above. The isogenic ATXN3/[…]-75 cell line was employed, which was formed from subjecting the Flp-InTM-293 cells to targeting insertion of the pcDNA5/FRT/TO-ATXN3/[…] and […] recombinant plasmids. These cell lines were grown in medium containing 5 μg/mL blasticidin and 100 μg/mL hygromycin (InvivoGen). In addition, the method for culture in establishment of the human SH-SY5Y derived Flp-In host cell line and the formation of the isogenic ATXN3/[…]-75 cell line was the same. […] After that, cells were stained with Hoechst 33342 (0.1 μg/mL) and aggregation percentage was assessed as described.
# [4] = MTT cytotoxicity assay in SH-SY5Y cells; format: cell-based; details: human, one day treatment
# Description: as §1
# [5] = 1,1-diphenyl-2-picryl hydrazyl (DPPH) radical scavenging assay; format: biochemical; details: for DPPH scavenging activity: 10-200 μM tested, data not shown
# Description: Then, the scavenging capacity was measured by monitoring the decrease in absorbance at 517 nm by a Thermo Scientific Multiskan GO Microplate Spectrophotometer.
SMILES,ATXN3/Q75 aggregation as compared to untreated cells ([1]; at 100 nM) [%],IC50 at 1 day [2] [µM],aggregation reduction in ATXN3/Q75 expressed neuronal cells ([3]; 100 nM) [%],IC50 at 1 day [4] [µM],DPPH scavenging activity [5],aggregation reduction in ATXN3/Q75 expressed neuronal cells ([3]; 500 nM) [%],ATXN3/Q75 aggregation as compared to untreated cells ([1]; at 500 nM) [%],"EC50 ([5]; 100 μM DPPH, 30 min room temperature) [µM]"
"O=C(CCCCCCC(=O)Nc1ccccc1)NO [SAHA, suberoylanilide hydroxamic acid, reference compound]",85.9,,,,,,,
CC(/C=C/C=C(\C)C(=O)O[C@@H]1O[C@H](CO[C@@H]2O[C@H](CO)[C@@H](O)[C@H](O)[C@H]2O)[C@@H](O)[C@H](O)[C@H]1O)=C\C=C\C=C(C)\C=C\C=C(/C)C(=O)O[C@@H]1O[C@H](CO[C@@H]2O[C@H](CO)[C@@H](O)[C@H](O)[C@H]2O)[C@@H](O)[C@H](O)[C@H]1O [crocin],81.5,> 1000,21,970,,,,
COC(=O)C1=CO[C@@H](O)[C@@H]2C(CO)=CC[C@H]12 [genipin],,580,,100,no detectable DPPH scavenging activity,18,,
COC(=O)C1=CO[C@@H](O[C@@H]2O[C@H](CO)[C@@H](O)[C@H](O)[C@H]2O)[C@@H]2C(CO)=CC[C@H]12 [geniposide],,> 1000,,> 1000,no detectable DPPH scavenging activity,21,82.3,
"O=c1c(O)c(-c2ccc(O)cc2)oc2cc(O)cc(O)c12 [kaempferol, reference compound]",,,,,,,,27

# — patent US20150064287A1, “METHOD FOR TREATING ABNORMAL POLYGLUTAMINE-MEDIATED DISEASES” (NATIONAL TAIWAN NORMAL UNIVERSITY, priority 2013, published 2015)
